Structures can show the parent of a compound that is named as a salt. A value given as a limit tells only on which side of the number the result lay.

Test [1] has as its target T1, Neuraminidase (from Clostridium perfringens, Type V) immobilized on magnetic beads (NA-MBs) (Clostridium perfringens, UniProt A0A0H2YQR1). As to the kind of experiment: biochemical. Conditions: for inhibition at 50 µM: 0.05 h, read-out: Inhibitory ratio (%).
In test [2] the test system is NA. The following applies: cited from earlier work; for binder / non-binder for NA: known active/inactive compounds for NA.
Test [3] relates to NA. Conditions: read-out: IC50, literature reported value; cited from earlier work.
Test [4] concerns the target T1, Neuraminidase (from Clostridium perfringens, Type V) immobilized on magnetic beads (NA-MBs). It is filed as binding. The following applies: 5.0 mg/mL ethyl acetate extract fraction of Flos Lonicerae, 37 °C, 1 h.
The target is the same in test [5]. It is filed as biochemical. Conditions: 40 μM MUNANA, 37 °C, 3 min.
Test [6] has the same target. It is filed as biochemical.

T1 sequence (A0A0H2YQR1 42-694 limits assumed): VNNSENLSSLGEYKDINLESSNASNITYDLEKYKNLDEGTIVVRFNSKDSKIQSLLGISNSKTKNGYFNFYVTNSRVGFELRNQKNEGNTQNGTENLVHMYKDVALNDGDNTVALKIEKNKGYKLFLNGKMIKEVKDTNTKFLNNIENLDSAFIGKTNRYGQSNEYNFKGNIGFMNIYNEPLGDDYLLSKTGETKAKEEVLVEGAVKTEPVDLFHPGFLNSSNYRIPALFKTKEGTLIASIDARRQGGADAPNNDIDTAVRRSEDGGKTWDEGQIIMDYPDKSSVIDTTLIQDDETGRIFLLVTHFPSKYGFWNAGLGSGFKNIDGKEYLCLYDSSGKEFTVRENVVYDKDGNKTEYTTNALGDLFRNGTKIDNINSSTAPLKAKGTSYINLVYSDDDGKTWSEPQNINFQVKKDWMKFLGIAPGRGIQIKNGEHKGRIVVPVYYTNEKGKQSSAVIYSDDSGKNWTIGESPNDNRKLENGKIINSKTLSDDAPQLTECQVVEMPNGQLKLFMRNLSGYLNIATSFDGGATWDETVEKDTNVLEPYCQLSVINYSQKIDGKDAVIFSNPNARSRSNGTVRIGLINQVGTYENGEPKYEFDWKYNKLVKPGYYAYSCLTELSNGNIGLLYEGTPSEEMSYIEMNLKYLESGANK

Take `O=c1c(O)c(-c2ccc(O)cc2)oc2cc(O)cc(O)c12` [Kaempferol]: in test [1], the inhibition at 50 µM worked out at 51.2 ± 6.1%.
As to `O[C@H]1[C@H]2c3cc4c(cc3CN3CCC(=C[C@@H]1O)[C@H]23)OCO4` [Lycorine], in test [1], the inhibition at 50 µM was under 1%. The “binder / non-binder for NA” value in the test on NA [2] was “reported non-binders”.
Usually IC50 stands for the concentration at which inhibition is half-maximal. Take `CCOC(=O)C1=C[C@@H](OC(CC)CC)[C@H](NC(C)=O)[C@@H](N)C1` [Oseltamivir]: in test [1], the inhibition at 50 µM stood at 74.9 ± 3.5%. In addition, the IC50 in the test with NA [3] is […]. Also, the “binder / non-binder for NA” value in the test on NA [2] was “known binder”.
For the compound `O=C(/C=C/c1ccc(O)c(O)c1)OC1CC(O)(C(=O)O)CC(O)C1OC(=O)/C=C/c1ccc(O)c(O)c1` (centres unmarked) [3,4-di-O-caffeoylquinic acid], in test [4], the “Retention on NA-MBs in ligand fishing” value was “retained until the final elution steps”. The compound also displayed an IC50 in test [5] of 68.3 ± 3.1 µM.
As to `O=c1cc(-c2ccc(O)c(O)c2)oc2cc(O)cc(O)c12` [luteolin], in test [4], the “Retention on NA-MBs in ligand fishing” value is “retained until the final elution steps”.
Consider `O=c1c(O)c(-c2ccc(O)c(O)c2)oc2cc(O)cc(O)c12` [Quercetin], for which the inhibition at 50 µM in test [1] was found to be 48.1 ± 3.4%.
Turning to `Nc1cc[nH]c(=O)n1` [Cytosine], the inhibition at 50 µM in test [1] is under 1%.
As to `O=c1cc(-c2ccc(O)c(O)c2)oc2cc(O[C@@H]3O[C@H](CO)[C@@H](O)[C@H](O)[C@H]3O)cc(O)c12` [luteolin-7-O-β-D-glucoside], the “Retention on NA-MBs in ligand fishing” value in test [4] is reported as “retained until the final elution steps”. The compound also returned an IC50 in test [5] of 76.5 ± 3.9 µM.
For `O=c1c(O[C@@H]2O[C@H](CO)[C@H](O)[C@H](O)[C@H]2O)c(-c2ccc(O)c(O)c2)oc2cc(O)cc(O)c12` [Hyperoside], the inhibition at 50 µM in test [1] is 32.3 ± 2.7%.
In the case of `COc1ccc2c3c1O[C@H]1C[C@@H](O)C=C[C@@]31CCN(C)C2` [Galantamine, reference compound], in test [1], the inhibition at 50 µM was under 1%.
In the case of `Cc1c[nH]c(=O)[nH]c1=O` [Thymine], the inhibition at 50 µM in test [1] was under 1%.
The same measure, in the same setting: as for `COc1ccc(-c2oc3cc(O)cc(O)c3c(=O)c2O)cc1` [Kaempferide], the figure is 43.6 ± 4.9%.
For the compound `O=C1CCC[C@@H]2[C@H]3CCCN4CCC[C@@H](CN12)[C@@H]34` [matrine], the “binder / non-binder for NA” value in the test on NA [2] is on record as “reported non-binders”.
For `O=C1CCC[C@@H]2[C@H]3CCC[N@+]4([O-])CCC[C@@H](CN12)[C@@H]34` [Ammothamnine], the “Inhibitory ratio (%)” value in test [1] (50 μM tested compound, 40 μM MUNANA, 5 mg NA-MBs, 37 °C, 3 min, 3% DMSO) is recorded as under 1%.
Take `COc1cc(-c2oc3cc(O)cc(O)c3c(=O)c2O)ccc1O` [Isorhamnetin]: in test [1], the inhibition at 50 µM turned out to be 46.8 ± 5.8%.
With `Nc1nc2c(ncn2[C@@H]2O[C@H](CO)[C@@H](O)[C@H]2O)c(=O)[nH]1` [Guanosine], the inhibition at 50 µM in test [1] is under 1%.
One may read the Km as the substrate concentration at which the rate is half of its maximum. For the compound `CC(=O)N[C@H]1[C@H]([C@H](O)[C@H](O)CO)O[C@@](Oc2ccc3c(C)cc(=O)oc3c2)(C(=O)O)C[C@@H]1O` [MUNANA, 2′-(4-methylumbelliferyl)-α-D-N-acetylneuraminic acid sodium salt hydrate], the Km with NA [2] (substrate on NA-immobilized capillary microreactor) was 137 ± 10.8 µM; in test [6], 46.5 ± 3.68 µM.
On to `O=C(/C=C/c1ccc(O)c(O)c1)OC1CC(O)(C(=O)O)CC(OC(=O)/C=C/c2ccc(O)c(O)c2)C1O` (centres unmarked) [3,5-di-O-caffeoylquinic acid], for which the “Retention on NA-MBs in ligand fishing” value in test [4] was “retained until the final elution steps”. For the same compound, the IC50 in test [5] worked out at 61.2 ± 1.5 µM.
On to `O=C1CCC[C@@H]2[C@H]3CCC[N+]4([O-])CCC[C@@H](CN12)[C@@H]34` (some centres unmarked) [Oxymatrine], for which the inhibition at 50 µM in test [1] was under 1%.

The record behind these values is publication PMC6261295 (Journal of chromatography. A, 2018).
